Patent US11731965B2, “Tetrahydroprotoberberine compound, preparation method therefor and uses thereof, and pharmaceutical composition” (SHANGHAI INSTITUTE OF MATERIA MEDICA, CHINESE ACADEMY OF …, priority 2017, dated 2023)

Assays:
[1] = biological target: T1, human recombinant D2 receptor (Homo sapiens, UniProt P14416); assay: D2 antagonistic activity test (LANCE cAMP, antagonism of dopamine inhibition of cAMP production in HEK293 cells); format: cell-based; conditions: HEK293 cells expressing human recombinant D2 receptor; test concentration 0.1 nM to 10000 nM; read-out: D2 Antagonistic Activity (IC50, nmol/L)
T1 construct: expressed in transfected cells; host or cells: HEK293
Protocol: LANCE™ cAMP 384 Kit (PerkinElmer, USA) was used to test the antagonism of the compound against the D1 receptor using the HEK293 cells expressing human recombinant D1 receptor. The D1 antagonism of the compound was evaluated by testing the antagonistic action of the compounds against dopamine on the induction of cAMP production in HEK293 cells. The cAMP concentration test was performed according to the method described in the kit instructions. The test concentration of the compound was 0.1 nM to 10000 nM. SCH23390 was used as a positive control. The IC50 was calculated by Excelfit software. The test results of some compounds were shown in Table 1. • 2) D2 antagonistic activity test LANCE™ cAMP 384 Kit (PerkinElmer, USA) was used to test the antagonism of the compound against the D2 receptor using the HEK293 cells expressing human recombinant D2 receptor. The D2 antagonism of the compound was evaluated by testing the antagonistic action of the compounds against dopamine on the inhibition of cAMP production in HEK293 cells. The cAMP concentration test was performed according to the method described in the kit instructions. The test concentration of the compound was 0.1 nM to 10000 nM. Risperidone was used as a positive control. The IC50 was calculated by Excelfit software. The test results of some compounds were shown in Table 1 (ND means the test was not performed).

[2] = biological target: T2, human recombinant D1 receptor (Homo sapiens, UniProt P21728); assay: D1 antagonistic activity test (LANCE cAMP, antagonism of dopamine-induced cAMP production in HEK293 cells); format: cell-based; conditions: HEK293 cells expressing human recombinant D1 receptor; test concentration 0.1 nM to 10000 nM; read-out: D1 Antagonistic Activity (IC50, nmol/L)
T2 construct: expressed in transfected cells; host or cells: HEK293
Protocol: • 1) D1 antagonistic activity test
The D1 antagonism of the compound was evaluated by testing the antagonistic action of the compounds against dopamine on the induction of cAMP production in HEK293 cells. The cAMP concentration test was performed according to the method described in the kit instructions. The test concentration of the compound was 0.1 nM to 10000 nM. SCH23390 was used as a positive control. The IC50 was calculated by Excelfit software.

[3] = test system: insomnia induced by injection with 4-Chlorophenylalanine (PCPA) in rats; assay: Sedative and hypnotic effects, PCPA-induced insomnia model in rats treated with sodium pentobarbital; format: in vivo, Wistar rats; conditions: for sleep time: FIG. 2
Protocol: The sedative and hypnotic effects of Example 60 were evaluated using a model of insomnia induced by injection with 4-Chlorophenylalanine (PCPA) in rats.
Dosage and method of administration: PCPA was administered at a dose of 150 mg/kg. […] was administered by a single intraperitoneal injection at 72 hours before the experiment in all Wistar rats. The diazepam group (DI) was administered at a dose of 2 mg/kg and 4 mg/kg, a single intraperitoneal injection; the test drug group was administered at a dose of 1 mg/kg and 3 mg/kg, a single intragastric administration; sodium pentobarbital was administered at a dose of 25 mg/kg, a single intraperitoneal injection. The administration volume was 10 ml/kg. On the day of the test, the model group was given sodium pentobarbital 30 minutes after the same volume of physiological saline was given; the DI group was given sodium pentobarbital 30 minutes after DI was administered; the test drug group was given sodium pentobarbital 60 minutes after the drug was administered.lndex observation: After the administration of sodium pentobarbital, the rats' response was closely observed. The time from the administration to 1 minute after the righting reflex disappeared is the sleep latency. The time from 1 minute after the righting reflex disappeared to the point that the righting reflex returned is sleep time.

[4] = test system: PCP-induced high spontaneous activity in mice; assay: PCP-induced high spontaneous activity test in mice; format: in vivo, Male ICR mice; conditions: oral, PCP-induced high spontaneous activity in mice
Protocol: PCP (phencylidine) was dissolved in physiological saline to prepare a 7 mg/kg solution. The test compound was formulated with a 0.5% CMC-Na solution to a solution with suitable concentration, ready-to-use. Male ICR mice were 18-22 g. Mice were randomly divided into a solvent control group, a model control group, a positive control group, and each test drug group during the test. There were 8 mice in each group. Mice in each group were given each test drug by gavage. 45 minutes after the test drug was administered, mice were injected with a PCP (7 mg/kg) solution intraperitoneally. The spontaneous, open field video analysis system was used to record the mouse movement trajectory within 45 min after administration of test drug or saline, and then the mouse movement trajectory within 75 min after PCP administration. Spontaneous, open field video analysis system was used to analyze the mouse's movement trajectory, and the total distance of the movement of the mice in each group was counted. The result was expressed as mean±SD. Results were analyzed by one-way analysis of variance.

[5] = Metabolism of l-stepholidine (statement only, no method)

T1 sequence (P14416 whole entry): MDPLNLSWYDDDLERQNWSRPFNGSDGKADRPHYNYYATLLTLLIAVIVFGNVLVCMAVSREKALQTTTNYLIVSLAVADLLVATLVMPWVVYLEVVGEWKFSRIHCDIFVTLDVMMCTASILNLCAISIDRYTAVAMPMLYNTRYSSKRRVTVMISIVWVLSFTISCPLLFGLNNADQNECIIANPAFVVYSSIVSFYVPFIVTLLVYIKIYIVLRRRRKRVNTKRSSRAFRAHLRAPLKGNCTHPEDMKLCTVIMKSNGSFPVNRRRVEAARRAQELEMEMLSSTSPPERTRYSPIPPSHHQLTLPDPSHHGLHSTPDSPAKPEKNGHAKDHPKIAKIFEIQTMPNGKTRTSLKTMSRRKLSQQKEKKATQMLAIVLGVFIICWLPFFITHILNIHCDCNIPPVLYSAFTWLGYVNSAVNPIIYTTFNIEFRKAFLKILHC
T2 sequence (P21728 whole entry): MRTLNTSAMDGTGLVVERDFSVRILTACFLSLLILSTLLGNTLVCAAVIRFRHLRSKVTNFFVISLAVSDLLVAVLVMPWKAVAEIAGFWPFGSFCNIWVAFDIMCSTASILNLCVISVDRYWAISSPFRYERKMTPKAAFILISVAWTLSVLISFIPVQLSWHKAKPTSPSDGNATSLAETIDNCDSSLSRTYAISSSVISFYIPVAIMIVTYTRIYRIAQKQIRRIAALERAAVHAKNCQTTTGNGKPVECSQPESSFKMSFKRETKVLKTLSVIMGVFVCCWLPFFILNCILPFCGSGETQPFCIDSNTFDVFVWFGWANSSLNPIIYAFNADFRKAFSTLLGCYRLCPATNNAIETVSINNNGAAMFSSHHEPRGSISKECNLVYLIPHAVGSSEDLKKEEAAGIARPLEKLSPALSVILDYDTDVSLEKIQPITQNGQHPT

IC50 [1] [nmol/L] | IC50 [2] [nmol/L] | metabolism [5] | SMILES | sleep time ([3]; 1 mg/kg single intragastric administration, sodium pentobarbital 25 mg/kg ip 60 minutes later) | sleep latency ([3]; 3 mg/kg single intragastric administration, sodium pentobarbital 25 mg/kg ip 60 minutes later, FIG. 1, *P<0.05 vs model group) | sleep time ([3]; 3 mg/kg single intragastric administration, sodium pentobarbital 25 mg/kg ip 60 minutes later) | hypnotic effect (overall) ([3]; PCPA-induced insomnia rats, 1 and 3 mg/kg intragastric) | duration of effect / efficacy [4]
6.2 | 525 | – | COc1cc2c(cc1NS(C)(=O)=O)[C@@H]1Cc3ccc(OC)c(OC)c3CN1CC2 [Example 60, (S)-2-methanesulfonylamino-3,9,10-trimethoxy-6,8,13,13a-tetrahydro-5H-dibenzo[a,g] quinolizine] | significantly prolong | significantly reduce | prolong | good hypnotic effect | –
37 | 7.7 | fast metabolism | COc1cc2c(cc1O)[C@@H]1Cc3ccc(O)c(OC)c3CN1CC2 [l-SPD, L-Stepholidine, reference compound] | – | – | – | – | short duration of effect
